# Experimental data published in US6358999B2, “Use of zinc tranexamate in the treatment of diabetes” (Hamari Chemicals, LTD, priority 2000, dated 2002).
# Assays:
# [1] = Suppressive effect on elevation of blood sugar level after glucose loading in mice; type: in vivo
# Protocol: Each group consisting of five mice was fasted for 17-24 hours and then Y-4 was orally administered at varying doses. After 30 minutes, mice were given glucose orally at a dose of 1 g/kg body weight. Blood samples were collected from the tail end of mice at different time intervals and assayed for blood sugar levels using GLUTEST™ sensor available from Matsushita Kotobuki Electronic Industry Company.
# [2] = Suppressive effect on elevation of blood sugar level after sucrose loading in mice; type: in vivo
# Protocol: Each group consisting of five mice was fasted for 17-24 hours and then Y-4 was orally administered at varying doses.
# Mice were orally given 1 g/kg body weight of sucrose 30 minutes after the administration of Y-4 or 2 g/kg body weight of sucrose 2 hours after the administration of Y-4. As in the preceding example, blood samples were collected from the tail end of mice at different time intervals and assayed for blood sugar levels.
# [3] = Blood sugar and insulin levels in streptozocin-induced diabetic mice after sucrose loading; type: in vivo; details: STZ diabetic mice; for Blood sugar level: 200 mg/kg p.o. 30 minutes before sucrose 2 g/kg
# Protocol: Experimental diabetes was induced in mice by treating the mice with streptozocin (STZ) (100 mg/kg/day i.p. for two days). After fasting for 17-24 hours, the mice were orally given Y-4 at varying doses 30 minutes before loading 2 g/kg of sucrose. After sucrose loading, blood samples were collected and assayed for blood sugar levels at different time intervals as in the preceding examples.
# Similar to the above experiments, Y-4 was orally administered to the mice having experimental diabetes at a dose of 100 mg/kg 30 minutes before loading of 2 g of sucrose. Blood sugar and insulin levels in blood samples collected 30 minutes after sugar loading are shown in FIG. 1 and FIG. 2, respectively.
# [4] = tested on: intestinal α-glucosidase; assay: Inhibition of intestinal α-glucosidase activity of normal mouse (intestinal homogenate, glucose production); type: biochemical; details: for Glucose (glucose production from isomaltose): substrate isomaltose; for Glucose (glucose production from isomaltose) / Glucose (glucose production from maltose) / Glucose (glucose production from sucrose): 37° C., 30 minutes; for Glucose (glucose production from maltose): substrate maltose; for Glucose (glucose production from sucrose): substrate sucrose
# Protocol: (§1) Intestinal tract enucleated from a normal mouse was homogenized by the conventional method after removing membrane mucosa. As a substrate, sucrose, starch, maltose or isomaltose was used. The homogenate was incubated with the substrate in the presence of a test compound (Y-4 or zinc chloride) at 37° C. for 30 minutes. The reaction mixture was centrifuged and the glucose concentration in the resulting supernatant was assayed. The glucose assay was conducted calorimetrically by adding a chromogenic reagent (0.47 mol/l of orthotoluidine, 16 mol/l of acetic acid, 10 mmol/l of boric acid) to the supernatant, heating the mixture in a boiling water bath for 8 minutes and measuring the absorbance at 635 nm. α-Glucosidase activity expressed in terms of glucose concentration/mg protein was calculated.
# [5] = tested on: intestinal α-glucosidase; assay: Inhibition of intestinal α-glucosidase activity of streptozocin-induced diabetic mouse; type: biochemical; details: for Glucose (glucose production from maltose) / Glucose (glucose production from sucrose): diabetic mouse; for Glucose (glucose production from maltose): substrate maltose; for Glucose (glucose production from sucrose): substrate sucrose
# Protocol: as §1
# Example 5 was repeated using intestinal tract enucleated from a diabetic mouse induced by the treatment with streptozocin instead of intestinal tract enucleated from a normal mouse to determine the inhibitory effect of Y-4 on α-glycosidase activity. The intestinal α-glucosidase activity was higher in streptozocin-induced diabetic mouse than in normal mouse. […] The inhibitory effect of Y-4 was more remarkable in the diabetic mouse than in normal mouse.
# [6] = Improvement of insulin resistance in Wistar fatty rats with type II diabetes (glucose loading after 8 weeks); type: in vivo; details: 150 mg/kg daily p.o. 8 weeks, after glucose 2.5 g/kg
# Protocol: Y-4 was orally administered to male Wistar fatty rats (WFR) having tyep II diabetes with obesity and hyperlipidemia at an average daily dose of 150 mg/kg for consecutive 8 weeks. Eight weeks after the initiation of administration, the rats were fasted for 20 hours and then given oral administration of 2.5 g/kg/rat of glucose. Blood samples were collected from the tail vein at 30, 60, 120 and 180 minutes after the administration of glucose for assaying blood sugar and insulin levels. The results are shown in FIG. 3 and FIG. 4, respsectively.
# [7] = 1,200 mg/kg orally administered to mice; cited from earlier work
# [8] = 100 mg/kg p.o. 30 minutes before sucrose, 30 minutes after sugar loading
smiles,measurement,setting,value
"NC[C@H]1CC[C@H](C(=O)[O-])CC1.NC[C@H]1CC[C@H](C(=O)[O-])CC1.O.[Zn+2] [Y-4, zinc tranexamate monohydrate]",Blood sugar level,"[1]; 50 mg/kg p.o. 30 min before glucose 1 g/kg, 20 min.",96.0 ± 3.5 mg/dL
same,Blood sugar level,"[1]; 50 mg/kg p.o. 30 min before glucose 1 g/kg, 40 min.",104.8 ± 7.1 mg/dL
same,Blood sugar level,"[1]; 50 mg/kg p.o. 30 min before glucose 1 g/kg, 60 min.",99.0 ± 14.0 mg/dL
same,Blood sugar level,"[1]; 50 mg/kg p.o. 30 min before glucose 1 g/kg, 120 min.",78.4 ± 6.4 mg/dL
same,Blood sugar level,"[1]; 50 mg/kg p.o. 30 min before glucose 1 g/kg, 180 min.",58.4 ± 6.0 mg/dL
same,Blood sugar level,"[1]; 100 mg/kg p.o. 30 min before glucose 1 g/kg, 20 min.",89.0 ± 2.9 mg/dL
same,Blood sugar level,"[1]; 100 mg/kg p.o. 30 min before glucose 1 g/kg, 40 min.",112.6 ± 5.0 mg/dL
same,Blood sugar level,"[1]; 100 mg/kg p.o. 30 min before glucose 1 g/kg, 60 min.",97.6 ± 0.9 mg/dL
same,Blood sugar level,"[1]; 100 mg/kg p.o. 30 min before glucose 1 g/kg, 120 min.",73.1 ± 2.5 mg/dL
same,Blood sugar level,"[1]; 100 mg/kg p.o. 30 min before glucose 1 g/kg, 180 min.",52.1 ± 1.9 mg/dL
same,Blood sugar level,"[1]; 200 mg/kg p.o. 30 min before glucose 1 g/kg, 20 min.",83.0 ± 4.1 mg/dL
same,Blood sugar level,"[1]; 200 mg/kg p.o. 30 min before glucose 1 g/kg, 40 min.",95.2 ± 3.6 mg/dL
same,Blood sugar level,"[1]; 200 mg/kg p.o. 30 min before glucose 1 g/kg, 60 min.",84.4 ± 2.8 mg/dL
same,Blood sugar level,"[1]; 200 mg/kg p.o. 30 min before glucose 1 g/kg, 120 min.",66.2 ± 3.3 mg/dL
same,Blood sugar level,"[1]; 200 mg/kg p.o. 30 min before glucose 1 g/kg, 180 min.",53.9 ± 2.1 mg/dL
same,Elevation of blood sugar level after glucose loading,[1]; varying oral doses 30 minutes before glucose 1 g/kg,suppressed elevation of blood sugar level
same,Blood sugar level,"[2]; 50 mg/kg p.o. 30 minutes before sucrose 1 g/kg, 20 min.",71.0 ± 5.9 mg/dL
same,Blood sugar level,"[2]; 50 mg/kg p.o. 30 minutes before sucrose 1 g/kg, 40 min.",90.8 ± 10.0 mg/dL
same,Blood sugar level,"[2]; 50 mg/kg p.o. 30 minutes before sucrose 1 g/kg, 60 min.",76.6 ± 9.9 mg/dL
same,Blood sugar level,"[2]; 50 mg/kg p.o. 30 minutes before sucrose 1 g/kg, 90 min.",68.0 ± 8.1 mg/dL
same,Elevation of blood sugar level after sucrose loading,"[2]; 100 mg/kg and 200 mg/kg 30 minutes before sucrose loading, up to 90 minutes",significant suppressive effect
same,Blood sugar level,"[2]; 100 mg/kg p.o. 30 minutes before sucrose 1 g/kg, 20 min.",50.8 ± 2.4 mg/dL
same,Blood sugar level,"[2]; 100 mg/kg p.o. 30 minutes before sucrose 1 g/kg, 40 min.",59.3 ± 2.4 mg/dL
same,Blood sugar level,"[2]; 100 mg/kg p.o. 30 minutes before sucrose 1 g/kg, 60 min.",72.9 ± 2.6 mg/dL
same,Blood sugar level,"[2]; 100 mg/kg p.o. 30 minutes before sucrose 1 g/kg, 90 min.",60.6 ± 2.3 mg/dL
same,Blood sugar level,"[2]; 200 mg/kg p.o. 30 minutes before sucrose 1 g/kg, 20 min.",40.4 ± 0.4 mg/dL
same,Blood sugar level,"[2]; 200 mg/kg p.o. 30 minutes before sucrose 1 g/kg, 40 min.",53.2 ± 7.5 mg/dL
same,Blood sugar level,"[2]; 200 mg/kg p.o. 30 minutes before sucrose 1 g/kg, 60 min.",58.2 ± 8.7 mg/dL
same,Blood sugar level,"[2]; 200 mg/kg p.o. 30 minutes before sucrose 1 g/kg, 90 min.",57.6 ± 3.2 mg/dL
same,Blood sugar level,"[2]; 200 mg/kg p.o. 2 hours before sucrose 2 g/kg, 20 min.",66.2 ± 6.3 mg/dL
same,Blood sugar level,"[2]; 200 mg/kg p.o. 2 hours before sucrose 2 g/kg, 40 min.",84.6 ± 8.9 mg/dL
same,Blood sugar level,"[2]; 200 mg/kg p.o. 2 hours before sucrose 2 g/kg, 60 min.",94.0 ± 18.0 mg/dL
same,Blood sugar level,"[2]; 200 mg/kg p.o. 2 hours before sucrose 2 g/kg, 90 min.",94.4 ± 17.2 mg/dL
same,Blood sugar level (FIG. 1),[3]; [8],suppressed the elevation of blood sugar level almost completely
same,Insulin level (FIG. 2),[3]; [8],not significantly different from the control value of normal mice group
same,Blood sugar level,[3]; 20 min.,96.8 mg/dL
same,Blood sugar level,[3]; 40 min.,134.2 mg/dL
same,Blood sugar level,[3]; 60 min.,138.2 mg/dL
same,Blood sugar level,[3]; 90 min.,137.0 mg/dL
same,Blood sugar level,[3]; 180 min.,131.8 mg/dL
same,Elevation of blood sugar level after sucrose loading in diabetic mice,"[3]; 30 minutes before sucrose loading, up to 3 hours",remarkably suppressed the elevation of blood sugar level
same,Glucose (glucose production from isomaltose),[4]; inhibitor 5 mM,5.009 ± 0.387 mg/mg protein
same,Glucose (glucose production from isomaltose),[4]; inhibitor 10 mM,4.150 ± 0.351 mg/mg protein
same,Glucose (glucose production from isomaltose),[4]; inhibitor 30 mM,3.473 ± 0.520 mg/mg protein
same,Glucose (glucose production from isomaltose),[4]; inhibitor 50 mM,3.158 ± 0.206 mg/mg protein
same,Glucose (glucose production from maltose),[4]; inhibitor 5 mM,17.956 ± 0.423 mg/mg protein
same,Glucose (glucose production from maltose),[4]; inhibitor 10 mM,14.810 ± 0.956 mg/mg protein
same,Glucose (glucose production from maltose),[4]; inhibitor 30 mM,10.963 ± 0.399 mg/mg protein
same,Glucose (glucose production from maltose),[4]; inhibitor 50 mM,5.353 ± 0.017 mg/mg protein
same,Glucose (glucose production from sucrose),[4]; inhibitor 5 mM,4.078 ± 0.073 mg/mg protein
same,Glucose (glucose production from sucrose),[4]; inhibitor 10 mM,1.682 ± 0.097 mg/mg protein
same,Glucose (glucose production from sucrose),[4]; inhibitor 30 mM,0.726 ± 0.157 mg/mg protein
same,Glucose (glucose production from sucrose),[4]; inhibitor 50 mM,0.436 ± 0.036 mg/mg protein
same,"α-Glucosidase activity, all substrates","[4]; sucrose, starch, maltose, isomaltose, concentration higher than 5 mM",inhibited α-glucosidase activity in the reaction with all substrates
same,Glucose (glucose production from maltose),[5]; inhibitor 5 mM,23.060 ± 1.129 mg/mg protein
same,Glucose (glucose production from maltose),[5]; inhibitor 10 mM,18.569 ± 1.617 mg/mg protein
same,Glucose (glucose production from maltose),[5]; inhibitor 30 mM,15.113 ± 0.093 mg/mg protein
same,Glucose (glucose production from maltose),[5]; inhibitor 50 mM,12.793 ± 0.337 mg/mg protein
same,Glucose (glucose production from sucrose),[5]; inhibitor 5 mM,10.128 ± 1.137 mg/mg protein
same,Glucose (glucose production from sucrose),[5]; inhibitor 10 mM,5.312 ± 1.113 mg/mg protein
same,Glucose (glucose production from sucrose),[5]; inhibitor 30 mM,3.146 ± 0.157 mg/mg protein
same,Glucose (glucose production from sucrose),[5]; inhibitor 50 mM,2.251 ± 0.327 mg/mg protein
same,"Inhibition of intestinal α-glucosidase, all substrates",[5]; streptozocin-induced diabetic mouse,remarkably inhibited
same,Blood sugar level (FIG. 3),[6],significantly controlled
same,Insulin level (FIG. 4),[6],normalized
same,Acute toxicity (death),[7],no death
